# Test results as given in patent publication US20100129353A1, “COMBINATION AND TREATMENT FOR MULTIPLE SCLEROSIS” (Laboratoires Serono S.A., priority 2004, published 2010).
# Tests used:
# [1] = system: MRI-measured brain lesions; details: MS patients, cited from earlier work
# [2] = system: brain lesions associated with progression of MS; test: Study of sixty patients with chronic multiple sclerosis: MRI brain lesions after one year of treatment; type: in vivo; details: seven days once per month for one year, MRI at month 12
# Experimental: A study of sixty patients with chronic multiple sclerosis is undertaken. Each patient is first examined for normal hepatic, renal, and bone marrow functioning to establish baseline values. [table] Each of the patients in Groups 2-4 and 8-10 is treated with 2-CdA dissolved in sterile preservative-free isotonic saline, whereas patients in Groups 1 and 5-7 receive a placebo (saline). The 2-CdA is administered intravenously for a total of seven days, once per month for a total of one year. Each of the patients in Groups 5-10 is treated with natalizumab, whereas Groups 1-4 received placebo (saline). The natalizumab is administered intravenously for a total of seven days, once per month for a total of one year, with the treatment being on the same day as 2-CdA treatment. Patients are monitored to determine whether there is any progression or improvement of brain lesions associated with progression of MS. All patients have a baseline and MRI study (brain or spinal cord, according to localization of the lesions) at month 12.
Molecule,"MRI-measured brain lesions ([1]; Phase II study as printed (Rice et al., 2000))",adverse effects ([1]; observed with the highest doses),change in brain lesions (MRI) ([2]; Group 2: 2-CdA 0.25 mg/kg i.v.),change in brain lesions (MRI) ([2]; Group 3: 2-CdA 0.5 mg/kg i.v.),change in brain lesions (MRI) ([2]; Group 4: 2-CdA 1 mg/kg i.v.),change in brain lesions (MRI) ([2]; Group 5: natalizumab 1 mg/kg i.v.),change in brain lesions (MRI) ([2]; Group 6: natalizumab 3 mg/kg i.v.),change in brain lesions (MRI) ([2]; Group 7: natalizumab 6 mg/kg i.v.)
"Nc1nc(Cl)nc2c1ncn2[C@H]1C[C@H](O)[C@@H](CO)O1 [2-CdA, 2-chloro-2′-deoxyadenosine]",significantly reduced MRI-measured brain lesions,increased incidence of infections related to compromised immune function or myelosuppression,increase in brain lesions,increase in brain lesions,decrease in brain lesions,–,–,–
natalizumab: anti-alpha-4 integrin antibody used as the second agent in Example 1,–,–,–,–,–,increase in brain lesions,decrease in brain lesions,decrease in brain lesions
